Data from patent US6737383B1, “Herbicidal oxadiazolidines” (priority 1999, dated 2004).

What was measured:
cocklebur = assay: Test B pre/postemergence cocklebur; assay type: in vivo, Xanthium strumarium
Method in brief: (§1)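 Response is a visual 0-to-10 score relative to untreated plants, where 0 means no effect and 10 means complete control, taken twelve to sixteen days after application. Treatments went onto soil at planting and onto foliage of 1- to 4-leaf plants, using a surfactant-containing non-phytotoxic solvent.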

bamyardgrass = assay: Test B flood test barnyardgrass; assay type: in vivo, Echinochloa crus-galli
Method in brief: (§2)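 Flood test on plants grown to the 2-leaf stage; treated plants kept in greenhouse twelve to sixteen days, then visually rated against controls on a 0 (no effect) to 10 (complete control) scale.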

smallflower flatsedge = assay: Test B flood test smallflower flatsedge; assay type: in vivo, Cyperus difformis
Method in brief: as §2

sugar beet = assay: Test B pre/postemergence sugar beet; assay type: in vivo, Beta vulgaris
Method in brief: as §1

[1] = Preemergence, Rate 31 g/ha, visual rating, scale 0 to 10 (0 no effect, 10 complete control)
[2] = Preemergence, Rate 62 g/ha, scale of 0 to 10 where 0 is no effect and 10 is complete control
[3] = Preemergence, Rate 125 g/ha, 0 is no effect, 10 is complete control
[4] = Preemergence, Rate 250 g/ha, scale 0 to 10, 0 is no effect, 10 is complete control
[5] = Rate 62 g/ha, Postemergence, scale of 0 to 10 where 0 is no effect and 10 is complete control
[6] = Rate 125 g/ha, Postemergence, scale 0 to 10
[7] = Rate 31 g/ha, Pre-emergence section (flood test species), scale 0 to 10
[8] = Rate 62 g/ha, headed Pre-emergence (flood test species), scale 0 to 10 (0 no effect, 10 complete control)
[9] = Rate 125 g/ha, Pre-emergence, flood test species, scale 0 to 10 where 0 is no effect and 10 is complete control
[10] = Rate 250 g/ha, Pre-emergence, flood-test species, scale 0 to 10, 0 is no effect, 10 is complete control
[11] = Postemergence, Rate 125 g/ha, scale of 0 to 10 where 0 is no effect and 10 is complete control
[12] = Postemergence, Rate 250 g/ha, scale of 0 to 10, 0 is no effect, 10 is complete control
[13] = Postemergence, Rate 1000 g/ha, scale 0 to 10 (0 no effect, 10 complete control)
[14] = Preemergence, Rate 125 g/ha, scale of 0 to 10 where 0 is no effect and 10 is complete control
[15] = Preemergence, Rate 250 g/ha, scale 0 to 10 (0 no effect, 10 complete control)
[16] = Preemergence, Rate 500 g/ha, scale of 0 to 10 where 0 is no effect and 10 is complete control
[17] = Rate 1000 g/ha, Preemergence, scale 0 to 10 (0 no effect, 10 complete control)
[18] = Pre-emergence, Rate 1000 g/ha, scale 0 to 10 (0 no effect, 10 complete control)
[19] = Rate 125 g/ha, under heading Pre-emergence, flood test species, visual evaluation after twelve to sixteen days
[20] = Rate 250 g/ha, Pre-emergence (flood test species), scale 0 to 10, 0 is no effect, 10 is complete control
[21] = Rate 500 g/ha, Pre-emergence section of Table B, 0 to 10 scale (0 no effect, 10 complete control)
[22] = Postemergence, Rate 250 g/ha, scale 0 to 10, 0 no effect, 10 complete control
[23] = Preemergence, Rate 125 g/ha, scale 0 to 10 (0 no effect, 10 complete control)
[24] = Preemergence, Rate 250 g/ha, scale of 0 to 10 where 0 is no effect and 10 is complete control
[25] = Preemergence, Rate 500 g/ha, scale 0 (no effect) to 10 (complete control)
[26] = Rate 125 g/ha, Postemergence, scale 0 to 10, 0 no effect, 10 complete control
[27] = Rate 125 g/ha, Postemergence section (flood test species), scale 0 to 10, 0 no effect, 10 complete control
[28] = flood test, listed under Postemergence, Rate 250 g/ha, scale 0 to 10, 0 no effect, 10 complete control

Cc1ccccc1-n1c(=O)on(C(=O)N(c2ccc(F)cc2)C2CCC2)c1=O [Compound 200]
Cocklebur plant response rating (cocklebur; [1]): 0
Cocklebur plant response rating (cocklebur; [2]): 0
Cocklebur plant response rating (0 to 10 scale) (cocklebur; [3]): 0
Cocklebur plant response rating (cocklebur; [4]): 0
Cocklebur plant response rating (cocklebur; Rate 31 g/ha, Postemergence, scale 0 to 10): 0
Cocklebur plant response rating (cocklebur; [5]): 0
Cocklebur plant response rating (cocklebur; [6]): 0
Plant response rating (0 to 10; 0 is no effect, 10 is complete control), Cocklebur (cocklebur; Rate 250 g/ha, Postemergence): 0
Barnyardgrass plant response rating (bamyardgrass; [7]): 0
Barnyardgrass plant response rating (bamyardgrass; [8]): 0
Barnyardgrass plant response rating (bamyardgrass; [9]): 0
Barnyardgrass plant response rating (bamyardgrass; [10]): 0
S. Flatsedge plant response rating (smallflower flatsedge; [7]): 0
S. Flatsedge plant response rating (smallflower flatsedge; [8]): 0
S. Flatsedge plant response rating (smallflower flatsedge; [9]): 0
S. Flatsedge plant response rating (smallflower flatsedge; [10]): 0
Sugarbeets plant response rating (sugar beet; [1]): 0
Sugarbeets plant response rating (sugar beet; [2]): 0
Sugarbeets plant response rating (0 to 10 scale) (sugar beet; [3]): 0
Sugarbeets plant response rating (sugar beet; [4]): 0
Sugarbeets plant response rating (sugar beet; [5]): 0
Sugarbeets plant response rating (sugar beet; [6]): 0
Plant response rating (0 to 10; 0 is no effect, 10 is complete control), Sugarbeets (sugar beet; Rate 250 g/ha, Postemergence): 0

CCOP(=O)(OCC)C(C)n1c(=O)on(C(=O)N(c2ccc(F)cc2)C(C)C)c1=O (stereo not shown) [Compound 617]
Plant response rating, Cocklebur (cocklebur; [11]): 0
Cocklebur plant response rating (cocklebur; [12]): 0
Plant response rating, Cocklebur (cocklebur; Postemergence, Rate 500 g/ha, scale of 0 to 10 where 0 is no effect and 10 is complete control): 2
Cocklebur plant response rating (cocklebur; [13]): 3
Cocklebur plant response rating (cocklebur; [14]): 0
Plant response rating, Cocklebur (cocklebur; [15]): 0
Plant response rating, Cocklebur (cocklebur; [16]): 0
Plant response rating, Cocklebur (cocklebur; [17]): 0
Barnyardgrass plant response rating (bamyardgrass; [18]): 0
Barnyardgrass plant response rating (0 to 10 scale, 0 is no effect, 10 is complete control) (bamyardgrass; [19]): 0
Barnyardgrass plant response rating (bamyardgrass; [20]): 0
Barnyardgrass plant response rating (bamyardgrass; [21]): 0
S. Flatsedge plant response rating (smallflower flatsedge; [18]): 0
S. Flatsedge plant response rating (0 to 10 scale, 0 is no effect, 10 is complete control) (smallflower flatsedge; [19]): 0
S. Flatsedge plant response rating (smallflower flatsedge; [20]): 0
S. Flatsedge plant response rating (smallflower flatsedge; [21]): 0
Plant response rating, Sugarbeets (sugar beet; [11]): 0
Sugarbeets plant response rating (sugar beet; [12]): 0
Sugarbeets plant response rating (sugar beet; [13]): 0
Sugarbeets plant response rating (sugar beet; [14]): 0
Plant response rating, Sugarbeets (sugar beet; [15]): 0
Plant response rating, Sugarbeets (sugar beet; [16]): 0
Plant response rating, Sugarbeets (sugar beet; [17]): 0

CCN(CC)C(=O)n1oc(=O)n(-c2c(C)cccc2C)c1=O [Compound 2]
Cocklebur plant response rating (cocklebur; [22]): 0
Cocklebur plant response rating (cocklebur; [13]): 0
Plant response rating, Cocklebur (cocklebur; [23]): 0
Plant response rating, Cocklebur (cocklebur; [24]): 0
Cocklebur plant response rating (cocklebur; [25]): 0
Cocklebur plant response rating (cocklebur; [26]): 0
Cocklebur plant response rating (cocklebur; Rate 500 g/ha, Postemergence, 0 to 10 scale (0 no effect, 10 complete control)): 0
Barnyardgrass plant response rating (bamyardgrass; [13]): 0
Barnyardgrass plant response rating (bamyardgrass; [27]): 0
Barnyardgrass plant response rating (bamyardgrass; Rate 500 g/ha, Postemergence section of Table B, 0 to 10 scale (0 no effect, 10 complete control)): 0
Barnyardgrass plant response rating (bamyardgrass; [28]): 0
S. Flatsedge plant response rating (smallflower flatsedge; [13]): 0
S. Flatsedge plant response rating (smallflower flatsedge; [27]): 0
S. Flatsedge plant response rating (smallflower flatsedge; [28]): 0
Sugarbeets plant response rating (sugar beet; [22]): 0
Sugarbeets plant response rating (sugar beet; [13]): 0
Plant response rating, Sugarbeets (sugar beet; [23]): 0
Plant response rating, Sugarbeets (sugar beet; [24]): 0
Sugarbeets plant response rating (sugar beet; [25]): 0
Sugarbeets plant response rating (sugar beet; [26]): 0
Plant response rating, Sugarbeets (sugar beet; [17]): 0
